Measurements published in the supplement of paper PMC10627819.

Experiments:
S. pneumoniae D39V [1] = assay: fitness (endpoint OD595 vs no drug) (fraction); higher = more growth
Method in brief: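 Cultures at OD595 0.01 were dispensed into 384-well plates in TSB, LB Lennox or CY and incubated at 37 °C. Every 30 min for 14 h, OD595 was read and corrected by the first reading. Fitness is the optical density at entry into stationary phase relative to the robust mean of no-drug control wells, capped at 1.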

B. subtilis 168 = assay: Bliss interaction score (quartile over a dose matrix) (fitness difference); higher = more antagonism (negative = synergy)
Method in brief: (§1)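 The Bliss score takes observed fitness and subtracts the expected fitness, calculated as a product of single-drug fitness values. Those single-drug values were inferred from the combination data. Fitness is OD595 at entry into stationary phase divided by the plate's robust no-drug mean, capped at 1, and the score is summarised by quartiles across technical, biological and donor/recipient replicates.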

S. aureus DSM 20231 = assay: as above
Method in brief: as §1

S. aureus Newman = assay: as above
Method in brief: as §1

S. pneumoniae D39V [2] = assay: as above
Method in brief: as §1
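Throughout, for Bliss interaction score (quartile over a dose matrix): first quartile when negative (synergy) and third quartile when positive (antagonism).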

O=C(O[C@@H]1Cc2c(O)cc(O)cc2O[C@@H]1c1cc(O)c(O)c(O)c1)c1cc(O)c(O)c(O)c1 [EGCG] + CO[C@H]1/C=C/O[C@@]2(C)Oc3c(C)c(O)c4c(O)c(c(/C=N/N5CCN(C)CC5)c(O)c4c3C2=O)NC(=O)/C(C)=C\C=C\[C@H](C)[C@H](O)[C@@H](C)[C@@H](O)[C@@H](C)[C@H](OC(C)=O)[C@@H]1C [Rifampicin]
fitness, S. pneumoniae D39V [1]
Conditions | first compound 12.5 µg/mL | first compound 25 µg/mL | first compound 50 µg/mL
partner 0.025 µg/mL | 0.923 | 0.925 | ≥ 1
partner 0.05 µg/mL | 0.931 | – | 0.942
partner 0.1 µg/mL | – | – | 0.496

S. pneumoniae D39V [1], partner 0.2 µg/mL, one replicate
Conditions | fitness
first compound 12.5 µg/mL | 0
first compound 25 µg/mL | 0
first compound 50 µg/mL | 0

Conditions | Bliss interaction score
B. subtilis 168 | 0.0434
S. aureus DSM 20231 | -0.0623
S. aureus Newman | -0.0254
S. pneumoniae D39V [2] | -0.0502

O=C(O[C@@H]1Cc2c(O)cc(O)cc2O[C@@H]1c1cc(O)c(O)c(O)c1)c1cc(O)c(O)c(O)c1 [EGCG] + C[C@@H](O)[C@H]1C(=O)N2C(C(=O)O)=C(SCCNC=N)C[C@H]12 [Imipenem]
fitness, S. pneumoniae D39V [1]
Conditions | partner 0.005 µg/mL | partner 0.0065 µg/mL | partner 0.01 µg/mL | partner 0.013 µg/mL | partner 0.02 µg/mL | partner 0.026 µg/mL
first compound 12.5 µg/mL | 0.952 | 0.863 | 0.875 | 0.78 | 0.9 | 0.563
first compound 25 µg/mL | 0.985 | 0.833 | 0.971 | 0.959 | 0.842 | –
first compound 50 µg/mL | 0.912 | 0.896 | 0.939 | 0.799 | ≥ 1 | 0.899

Conditions | Bliss interaction score
B. subtilis 168 | 0.185
S. aureus DSM 20231 | -0.0357
S. aureus Newman | 0.0318
S. pneumoniae D39V [2] | 0.0607

O=C(O[C@@H]1Cc2c(O)cc(O)cc2O[C@@H]1c1cc(O)c(O)c(O)c1)c1cc(O)c(O)c(O)c1 [EGCG] + Clc1ccc(COC(Cn2ccnc2)c2ccc(Cl)cc2Cl)c(Cl)c1 [Miconazole]
fitness, S. pneumoniae D39V [1]
Conditions | partner 1.073 µg/mL | partner 1.25 µg/mL | partner 2.145 µg/mL | partner 2.5 µg/mL | partner 4.29 µg/mL | partner 5 µg/mL
first compound 12.5 µg/mL | 0.956 | 0.913 | ≥ 1 | 0.805 | 0.824 | 0.858
first compound 25 µg/mL | 0.983 | ≥ 1 | ≥ 1 | 0.923 | 0.834 | 0.89
first compound 50 µg/mL | 0.987 | 0.952 | 0.984 | 0.86 | 0.98 | 0.933

Conditions | Bliss interaction score
B. subtilis 168 | -0.0649
S. aureus DSM 20231 | 0.278
S. aureus Newman | 0.167
S. pneumoniae D39V [2] | 0.0773

O=C(O[C@@H]1Cc2c(O)cc(O)cc2O[C@@H]1c1cc(O)c(O)c(O)c1)c1cc(O)c(O)c(O)c1 [EGCG] + O=C1CN(/N=C/c2ccc([N+](=O)[O-])o2)C(=O)N1 [Nitrofurantoin]
fitness, S. pneumoniae D39V [1]
Conditions | partner 1.285 µg/mL | partner 2 µg/mL | partner 2.57 µg/mL | partner 4 µg/mL | partner 8 µg/mL
first compound 12.5 µg/mL | 0.914 | 0.858 | 0.938 | 0.832 | 0.558
first compound 25 µg/mL | 0.949 | 0.878 | 0.924 | 0.891 | 0.571
first compound 50 µg/mL | 0.954 | ≥ 1 | 0.951 | 0.802 | 0.566

S. pneumoniae D39V [1], partner 5.14 µg/mL, one replicate
Conditions | fitness
first compound 12.5 µg/mL | 0.917
first compound 25 µg/mL | 0.901
first compound 50 µg/mL | 0.921

Conditions | Bliss interaction score
B. subtilis 168 | 0.106
S. aureus DSM 20231 | 0.103
S. aureus Newman | 0.0864
S. pneumoniae D39V [2] | 0.0733

C[C@@H](O)[C@H]1C(=O)N2C(C(=O)O)=C(SCCNC=N)C[C@H]12 [Imipenem] + C/C(=C\C(=O)OCCCCCCCCC(=O)O)C[C@@H]1OC[C@H](C[C@@H]2O[C@H]2[C@@H](C)[C@H](C)O)[C@@H](O)[C@H]1O [Pseudomonic acid]
fitness, S. pneumoniae D39V [1]
Conditions | first compound 0.005 µg/mL | first compound 0.0065 µg/mL | first compound 0.01 µg/mL | first compound 0.013 µg/mL | first compound 0.02 µg/mL | first compound 0.026 µg/mL
partner 0.03 µg/mL | 0.897 | 0.799 | 0.896 | 0.889 | 0.917 | 0.89
partner 0.06 µg/mL | 0.772 | – | 0.799 | 0.7 | 0.77 | 0.688
partner 0.12 µg/mL | 0.578 | 0.439 | 0.583 | 0.479 | 0.583 | 0.504

Conditions | Bliss interaction score
B. subtilis 168 | 0.12
S. aureus DSM 20231 | 0.0093
S. aureus Newman | 0.0109
S. pneumoniae D39V [2] | -0.146
